Test results reported in PMC9934367, “Functional impact of subunit composition and compensation on Drosophila melanogaster nicotinic receptors–targets of neonicotinoids” (PLOS Genetics, 2023).
Like-named read-outs stand apart in the source and are kept apart here.

Columns and labels:
[1] = target: Dα1/Dα3/Dα4/Dβ1/Dβ2 nAChR; settings: mean ± standard error (n = 5); for Imax: normalised to maximum ACh response
Description: (§1) cDNAs of the nAChR subunits and co-factors were cloned into pcDNA3.1 (+) vector (Thermo Fisher Scientific). The accession numbers of the nAChR subunits and cofactors are as follows: Dα1 (NP_524481), Dα2 (NP_524482), Dα3 (NP_525079), Dα4 (CAB77445), Dβ1 (NP_523927), Dβ2 (NP_524483), Dβ3 (NP_525098), DmRIC-3 (CAP16647), DmUNC-50 (NP_649813), and DmTMX3 (NP_648847). cRNAs were prepared using the mMESSAGE mMACHINE T7 ULTRA Transcription Kit (Thermo Fisher Scientific, #AM1345) according to the manual with the cDNA template which was cut with appropriate restriction enzymes at the 3’ end of the cDNA.
(§2) We minimised the use of X. laevis according to the UK Animals (Scientific Procedures) Act, 1986. […] Oocytes were defolliculated after collagenase treatment in Ca^2+-free standard oocyte saline (Ca^2+-free SOS). cRNAs of the nAChR subunits and co-factors mixed at a concentration of 0.1 mg/mL was injected into oocytes at a volume of 50 nL. Then the oocytes were incubated in the incubation medium (SOS supplemented with sodium pyruvate (Nacalai Tesque, #13058–12), penicillin-streptomycin (MilliporeSigma, #P4333), gentamycin (Nacalai Tesque, #16672–04), and 4% horse serum (Thermo Fisher Scientific, #26050–070) for 3−4 days prior to electrophysiology.
(§3) Each defolliculated X. laevis oocyte was secured in a Perspex recording chamber and perfused with the standard oocyte saline (SOS) containing 0.5 μM atropine (SOSA) at a flow rate of 7−10 mL/min [48]. Two glass electrodes filled with 2 M KCl were impaled into each oocyte and the membrane potential was clamped at -100 mV. […] The peak amplitude of the response was measured and analysed by pCLAMP (Molecular Devices, USA).
(§4) Y=Imax/1+10^(logEC50‐X)nH
(§5) Where Y is the normalised response, X is log[ligand (M)], EC50 is the half maximal concentration (M), Imax is the maximum normalised response and nH is the Hill coefficient.

[2] = target: Dα2/Dα3/Dα4/Dβ1/Dβ2 nAChR; settings: mean ± standard error (n = 5)
Description: as §1, §2, §3, §4, §5

[3] = target: Dα1/Dα2/Dα4/Dβ1/Dβ2 nAChR; settings: mean ± standard error (n = 5); for Imax: normalised to maximum ACh response
Description: as §1, §2, §3, §4, §5

Dα1/Dβ1/Dβ2 nAChR = target: T1, Dα1/Dβ1/Dβ2 nAChR (Drosophila melanogaster, UniProt P04755+P09478+P25162); assay: Voltage-clamp electrophysiology, nAChR expressed in X. laevis oocytes; type: cell-based, D. melanogaster; settings: for Imax: mean ± standard error (n = 5)
T1 construct: Dα1 (NP_524481); Dβ1 (NP_523927); Dβ2 (NP_524483); expressed in transfected cells; host or cells: Xenopus laevis oocytes (cRNA injection)
Description: as §1, §2, §3, §4, §5

[4] = target: T2, Dα1/Dα2/Dβ1/Dβ2/Dβ3 nAChR; assay: as above; type: cell-based, D. melanogaster; settings: mean ± standard error (n = 5); for Imax: normalised to maximum ACh response
T2 construct: Dα1 (NP_524481); Dα2 (NP_524482); Dβ1 (NP_523927); Dβ2 (NP_524483); expressed in transfected cells; host or cells: Xenopus laevis oocytes (cRNA injection)
Description: as §1, §2, §3, §4, §5

Dα1/Dα2/Dβ1 nAChR = target: T3, Dα1/Dα2/Dβ1 nAChR (Drosophila melanogaster, UniProt P04755+P09478+P17644); assay: as above; type: cell-based, D. melanogaster; settings: mean ± standard error (n = 5)
T3 construct: Dα1 (NP_524481); Dα2 (NP_524482); Dβ1 (NP_523927); expressed in transfected cells; host or cells: Xenopus laevis oocytes (cRNA injection)
Description: as §1, §2, §3, §4, §5

Dα1/Dβ1 nAChR = target: T4, Dα1/Dβ1 nAChR (Drosophila melanogaster, UniProt P04755+P09478); assay: as above; type: cell-based, D. melanogaster; settings: mean ± standard error (n = 5)
T4 construct: Dα1 (NP_524481); Dβ1 (NP_523927); expressed in transfected cells; host or cells: Xenopus laevis oocytes (cRNA injection)
Description: as §1, §2, §3, §4, §5

[5] = target: T5, Dα1/Dα3/Dβ1/Dβ2/Dβ3 nAChR; assay: as above; type: cell-based, D. melanogaster; settings: mean ± standard error (n = 5)
T5 construct: Dα1 (NP_524481); Dβ1 (NP_523927); Dβ2 (NP_524483); expressed in transfected cells; host or cells: Xenopus laevis oocytes (cRNA injection)
Description: as §1, §2, §3, §4, §5

Dα1/Dα2/Dβ1/Dβ2 nAChR = target: T6, Dα1/Dα2/Dβ1/Dβ2 nAChR (Drosophila melanogaster, UniProt P04755+P09478+P17644+P25162); assay: as above; type: cell-based, D. melanogaster; settings: mean ± standard error (n = 5)
T6 construct: Dα1 (NP_524481); Dα2 (NP_524482); Dβ1 (NP_523927); Dβ2 (NP_524483); expressed in transfected cells; host or cells: Xenopus laevis oocytes (cRNA injection)
Description: as §1, §2, §3, §4, §5

[6] = target: T7, Dα2/Dα3/Dβ1/Dβ2/Dβ3 nAChR; assay: as above; type: cell-based, D. melanogaster; settings: mean ± standard error (n = 5)
T7 construct: Dα2 (NP_524482); Dβ1 (NP_523927); Dβ2 (NP_524483); expressed in transfected cells; host or cells: Xenopus laevis oocytes (cRNA injection)
Description: as §1, §2, §3, §4, §5

Dα3/Dβ1/Dβ2 nAChR = target: T8, Dα3/Dβ1/Dβ2 nAChR (Drosophila melanogaster, UniProt P04755+P25162+Q9W3G6); assay: as above; type: cell-based, D. melanogaster; settings: Dα3/Dβ1/Dβ2 nAChR; for Imax: mean ± standard error (n = 5)
T8 construct: Dβ1 (NP_523927); Dβ2 (NP_524483); expressed in transfected cells; host or cells: Xenopus laevis oocytes (cRNA injection)
Description: as §1, §2, §3, §4, §5

Dα2/Dα3/Dβ1 nAChR = target: T9, Dα2/Dα3/Dβ1 nAChR (Drosophila melanogaster, UniProt P04755+P17644+Q9W3G6); assay: as above; type: cell-based, D. melanogaster; settings: Dα2/Dα3/Dβ1 nAChR, mean ± standard error (n = 5)
T9 construct: Dα2 (NP_524482); Dβ1 (NP_523927); expressed in transfected cells; host or cells: Xenopus laevis oocytes (cRNA injection)
Description: as §1, §2, §3, §4, §5

[7] = tested on: T10, Dα1/Dα2/Dα3/Dβ1/Dβ2 nAChR; assay: as above; type: cell-based, D. melanogaster; settings: mean ± standard error (n = 5)
T10 construct: Dα1 (NP_524481); Dα2 (NP_524482); Dβ1 (NP_523927); Dβ2 (NP_524483); expressed in transfected cells; host or cells: Xenopus laevis oocytes (cRNA injection)
Description: as §1, §2, §3, §4, §5

Dα2/Dα3/Dβ1/Dβ2 nAChR = target: T11, Dα2/Dα3/Dβ1/Dβ2 nAChR (Drosophila melanogaster, UniProt P04755+P17644+P25162+Q9W3G6); assay: as above; type: cell-based, D. melanogaster; settings: mean ± standard error (n = 5)
T11 construct: Dα2 (NP_524482); Dβ1 (NP_523927); Dβ2 (NP_524483); expressed in transfected cells; host or cells: Xenopus laevis oocytes (cRNA injection)
Description: as §1, §2, §3, §4, §5

[8] = normalised to maximum ACh response

CN/C(=N\[N+](=O)[O-])NCc1cnc(Cl)s1 [Clothianidin, clothianidin]
pEC50 [1]: 6.94 ± 0.06
Imax [1]: 0.425 ± 0.008
Imax ([1]; listed as clothianidin): 0.425
pEC50 [2]: 7.11 ± 0.12
Imax [2, 8]: 0.912 ± 0.041
pEC50 [3]: 6.72 ± 0.09
Imax [3]: 1.001 ± 0.031
Imax ([3]; listed as clothianidin): 1.001
Imax (Dα1/Dβ1/Dβ2 nAChR; efficacy): 0.360
Imax (Dα1/Dβ1/Dβ2 nAChR; [8]): 0.360 ± 0.016
EC50 (Dα1/Dβ1/Dβ2 nAChR; read-out: EC50): 229 nM
pEC50 [4]: 5.67 ± 0.11
Imax [4]: 0.974 ± 0.041
Imax ([4]; listed as clothianidin): 0.974
Imax (Dα1/Dα2/Dβ1 nAChR; efficacy): 0.699
EC50 (Dα1/Dα2/Dβ1 nAChR; read-out: pEC50 (converted)): 8510 nM
Imax (Dα1/Dα2/Dβ1 nAChR; [8]): 0.699 ± 0.034
Imax (Dα1/Dβ1 nAChR; efficacy): 0.508
EC50 (Dα1/Dβ1 nAChR): 74.1 nM
Imax (Dα1/Dβ1 nAChR; [8]): 0.508 ± 0.015
pEC50 [5]: 7.60 ± 0.12
Imax [5, 8]: 0.531 ± 0.026
Imax (Dα1/Dα2/Dβ1/Dβ2 nAChR; efficacy): 0.800
EC50 (Dα1/Dα2/Dβ1/Dβ2 nAChR): 490 nM
Imax (Dα1/Dα2/Dβ1/Dβ2 nAChR; [8]): 0.800 ± 0.033
pEC50 [6]: 7.46 ± 0.06
Imax [6, 8]: 0.695 ± 0.014
Imax (Dα3/Dβ1/Dβ2 nAChR; [8]): 0.492 ± 0.016
EC50 (Dα3/Dβ1/Dβ2 nAChR; read-out: EC50): 34.7 nM
Imax (Dα3/Dβ1/Dβ2 nAChR; efficacy): 0.492
EC50 (Dα2/Dα3/Dβ1 nAChR): 155 nM
Imax (Dα2/Dα3/Dβ1 nAChR; [8]): 0.882 ± 0.076
Imax (Dα2/Dα3/Dβ1 nAChR; efficacy): 0.882
Imax ([7]; efficacy): 0.812
pEC50 [7]: 6.59 ± 0.07
Imax [7, 8]: 0.812 ± 0.019
Imax ([7]; normalised to maximum ACh response, listed as clothianidin): 0.812
Imax (Dα2/Dα3/Dβ1/Dβ2 nAChR; efficacy): 0.634
EC50 (Dα2/Dα3/Dβ1/Dβ2 nAChR): 51.3 nM
Imax (Dα2/Dα3/Dβ1/Dβ2 nAChR; [8]): 0.634 ± 0.020
